Results on six compounds are retold here after patent US20110301169A1, “Therapies for Treating Cancer Using Combinations of COX-2 Inhibitors and Antimetabolites” (priority 2007, published 2011).

The test system of series [1] is MX1 (ER−, erbB2−) breast carcinoma. Nature of the series: MX1 human breast carcinoma xenograft, tumor growth delay (Example 11). The series is classed as in vivo, female athymic nude mice. Particulars: alone. How it is done:
The compound was administered orally on a continuous daily regimen in female athymic nude mice bearing established sc-implanted xenografts.
(A xenograft is tissue or cells of one species grown in another, often human tumour cells in immunodeficient mice.)

Series [2] concerns human breast cancer cells (SK-BR-3). Nature of the series: SK-BR-3 model, tumor volume. It is filed as in vivo, nude mice. Particulars: COX-2 inhibitor in the diet, trastuzumab intravenously.
Protocol: Mice are injected subcutaneously in the left paw (1×10^6 tumor cells suspended in 30% Matrigel) and tumor volume is evaluated using a phlethysmometer twice a week for 30-60 days. Implantation of human breast cancer cells (SK-BR-3) into nude mice produces tumors that will reach 0.6-2 ml between 30-50 days. […] The data is expressed as the mean+/−SEM. Student's and Mann-Whitney tests are used to assess differences between means using the InStat software package.
The efficacy of both agents are determined by measuring tumor volume.
B. In a second assay, mice injected with SK-BR-3 cancer cells are then treated with 5-FU on days 12 through 15. […] The efficacy of both agents are determined by measuring tumor volume.
The next series addresses HER2 [ErbB2] (Homo sapiens, UniProt P04626). Particulars: cited from earlier work.
Series [3] in a line: Oral pharmacokinetics in dogs. The series is classed as in vivo. Particulars: dog, plasma, 5 mg/kg, read-out: elimination half life (t1/2). How it is done:
(§1) Peak plasma concentrations were achieved between 1 and 3 hours after a dose of 5 mg/kg.

For series [4] the following is noted: human, in vivo.
A short description of series [5]: Oral pharmacokinetics in monkeys. It is filed as in vivo. Particulars: monkey, plasma, 5 mg/kg, read-out: elimination half life (t1/2) (converted). The procedure: as §1
Series [6] is described as follows: Oral pharmacokinetics in rodents. It is filed as in vivo, mice, rats. How it is done:
as §1

Another series can be described thus: clinical. Particulars: human, in vivo. The procedure:
as §1

For a further series, the system named is BT474 tumor. Kind of series: BT474 model, tumor growth delay (Example 9). Particulars: Groups 3, 4: 30 mg/kg, po, qd to end. The series is classed as in vivo, Female SCID mice.
[7] abbreviates: third assay (C): 5-FU i.p. 50 mg/kg on days 14 through 17.

HER2 [ErbB2], sequence (P04626 23-1255): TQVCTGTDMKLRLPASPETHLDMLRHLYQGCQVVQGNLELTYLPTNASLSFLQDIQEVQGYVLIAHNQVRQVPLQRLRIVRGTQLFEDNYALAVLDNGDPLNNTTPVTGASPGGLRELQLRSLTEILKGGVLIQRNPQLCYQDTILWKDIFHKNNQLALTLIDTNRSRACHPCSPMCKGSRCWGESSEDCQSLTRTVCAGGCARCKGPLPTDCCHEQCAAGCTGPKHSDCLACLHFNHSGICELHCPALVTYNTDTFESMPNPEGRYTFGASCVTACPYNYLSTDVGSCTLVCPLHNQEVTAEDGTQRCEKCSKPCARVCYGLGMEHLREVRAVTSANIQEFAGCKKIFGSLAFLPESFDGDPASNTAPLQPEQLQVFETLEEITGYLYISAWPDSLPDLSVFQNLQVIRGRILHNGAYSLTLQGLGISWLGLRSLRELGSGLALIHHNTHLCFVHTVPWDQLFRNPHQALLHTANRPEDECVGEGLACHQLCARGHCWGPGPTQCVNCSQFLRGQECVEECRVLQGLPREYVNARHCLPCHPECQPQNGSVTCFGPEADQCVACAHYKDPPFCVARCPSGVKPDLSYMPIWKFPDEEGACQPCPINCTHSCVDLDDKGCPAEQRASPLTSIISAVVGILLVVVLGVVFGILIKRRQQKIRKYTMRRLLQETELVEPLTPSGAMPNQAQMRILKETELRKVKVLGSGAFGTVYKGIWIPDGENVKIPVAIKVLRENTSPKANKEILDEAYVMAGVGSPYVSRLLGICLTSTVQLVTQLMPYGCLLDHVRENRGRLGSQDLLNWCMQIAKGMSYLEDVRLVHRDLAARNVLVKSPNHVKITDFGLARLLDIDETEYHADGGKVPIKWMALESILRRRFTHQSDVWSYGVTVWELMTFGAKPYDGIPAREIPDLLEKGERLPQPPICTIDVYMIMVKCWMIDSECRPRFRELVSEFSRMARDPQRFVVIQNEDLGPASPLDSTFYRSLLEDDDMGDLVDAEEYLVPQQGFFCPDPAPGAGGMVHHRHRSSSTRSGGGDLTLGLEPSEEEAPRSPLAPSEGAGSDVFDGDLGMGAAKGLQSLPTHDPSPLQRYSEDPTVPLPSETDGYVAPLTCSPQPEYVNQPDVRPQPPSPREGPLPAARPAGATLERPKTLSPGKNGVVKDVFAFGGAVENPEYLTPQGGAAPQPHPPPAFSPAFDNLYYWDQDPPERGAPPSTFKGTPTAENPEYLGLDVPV
Protocol for BT474 tumor: Female SCID mice were injected subcutaneously in the flank (1 mm^3 BT474 tumor) and tumor volume was evaluated using a caliper twice a week for up to 90 days, longer for responders. Upon reaching an average tumor size of 100-200 mg the treatment was begun. […] The endpoint for the study was when tumor volume reached 0.75 gins or 90 days, which ever came first.

As to `Nc1nc2[nH]cc(CCc3ccc(C(=O)N[C@@H](CCC(=O)[O-])C(=O)[O-])cc3)c2c(=O)[nH]1.[Na+].[Na+]` [pemetrexed], the “TGD (in words)” value in [1] is “no TGD”.

Regarding `Cc1onc(-c2ccccc2)c1-c1ccc(S(N)(=O)=O)cc1` [valdecoxib], the “reduction in tumor volume” value in series [2] (setting [7]) worked out at 69%.

For orientation: Ki means the dissociation constant of the complex between target and ligand, obtained from inhibition or displacement. Consider `COCC(=O)NC/C=C/c1ccc2ncnc(Nc3ccc(Oc4ccc(C)nc4)c(C)c3)c2c1` [CP-724,714], for which the Ki at HER2 [ErbB2] was 7 nM.

On to `CCOc1ccc(-c2cc(C)cn2-c2ccc(S(N)(=O)=O)cc2)cc1`, for which the half-life in series [3] was 4 to 5 h; in [5], roughly 2 h; in [6] (mouse, rat, plasma, po, 5 mg/kg, rodents, read-out: elimination half life (t1/2)), 4 to 5 h; in the series “clinical”, 15 to 18 h. Moreover, in series [4], the “gastric or duodenal toxicity” value is “no increase in gastric or duodenal toxicity compared to placebo”. Moreover, the Oral availability entry in series [6] (rodent, compared with dogs and monkeys) was “greatest in rodent”.

On to `Cc1ccc(-c2cc(C(F)(F)F)nn2-c2ccc(S(N)(=O)=O)cc2)cc1` [celecoxib], for which, in the series on BT474 tumor, the “% tumor growth delay” value is −28% and the “Median Total Time to Endpoint” value worked out at 27.5 days. In the series on BT474 tumor (difference in median time to endpoint), this compound yielded a Difference from control of −10.7.

`O=c1[nH]cc(F)c(=O)[nH]1` [5-FU]: the “reduction in tumor volume” value in series [2] (second assay (B): 5-FU i.p. 50 mg/kg on days 12-15) came to 61%; in series [2] (setting [7]), 35%.
